Results: patent US6963769B1, “Method for enhancing contrast produced by MRI” (The United States of America as represented by the …, priority 1999, dated 2005)
Several values for one entry are separate records, joined by “and”; a condition that tells them apart may be missing. Equal values may be shown once. Where a name gives a salt, the structure may show the parent alone. Read-outs that look alike come from different tables or passages of the source.

Experiments:
[1] = in vitro CEDST spectra of candidate contrast agents (proton chemical exchange with water), 7T; conditions: for chemical shift of proton chemical exchange site (ΔωcA): relative to water
Method: Test compounds were dissolved in HPLC grade water at concentrations denoted in Table 1 with inorganic phosphate buffers to maintain pH.
CEDST spectra were acquired at 7T using a Bruker AC-300 wide bore spectrometer at 37° C. The observation frequency was set on the water peak and the decoupler was used to provide off-resonance saturation. Studies were conducted using a steady-state with irradiation (15 seconds) over a range of irradiation frequencies ±8.00 ppm from water. CEDST spectra were plotted in the form of water amplitude (Ms) versus irradiation frequency.
Several chemical reagents, including 5,6-dihydrouracil, 5-hydroxy-tryptophan, hydantoin, parabanic acid, sugars, amino acids, nucleosides, and imidazoles (Table 1), were tested for their ability to undergo proton chemical exchange detected using CEDST. Chemical shifts are reported relative to the water resonance. The spectral dependence of CEDST was determined by sweeping the irradiation frequency and while monitoring the water resonance.
Saturation depends on the B1 power and the irradiation offset frequency. The appropriate power was determined by increasing power until no further decrease in Ms was observed. […] Spin lattice relaxation time constants (T1) were obtained with inversion-recovery experiments. The range of inversion delays (Ti) was between 0.001 and 30 seconds, with a 30 second pre-delay.

[2] = cited from earlier work
[3] = pKa of the proton exchange site
[4] = MR images of phantoms, 4T GRE sequence with off-resonance saturation at ±850 Hz (5.00 ppm), difference image; type: physicochemical
Method: The results in FIG. 3 confirm those of FIG. 2. MR images of phantoms were collected on a custom-designed 4T system operating at room temperature (about 20° C.). The imaging sequence itself is a GRE (Gradient Recalled Echo) imaging sequence with an off-resonance saturation pulse centered at an offset of 5.00 ppm (850 Hz for the field at 4 Tesla). The other parameters used were: 90 degree flip angle used, TE (Echo time)=9 msec, TR (Repetition time)=1.2 sec, 16 Sinc pulses, followed by crusher gradients (which completely dephased the transverse magnetization). Four test tubes are shown in FIG. 3, with each containing a different solution. Three contained 62.5 mM barbituric acid at pH=7.4, 7.0, or 6.5. The fourth test tube contained 500 mM NH4Cl at pH=5.0. These test tubes were placed inside the 4T NMR imaging system, irradiated at ±850 Hz, and both control and experimental images were collected as described previously. FIG. 3 is the difference image generated by subtracting the experimental image from the control image. […] Therefore, the signals in these phantoms were generated due to proton chemical exchange with barbituric acid. The brightest signal in these phantoms (where the control and experimental image difference was the greatest) was generated by barbituric acid at pH=7.4.

rabbit bladder = experiment: in vivo CEDST MRI of rabbit bladder after intravenous barbituric acid, 4 Tesla; set-up: species or system New Zealand White rabbit
Method: This example describes the in vivo analysis of barbituric acid in a rabbit bladder. A male New Zealand White rabbit (1.5 kg, Hazelton Research Products, Denver Pa.) was initially anaesthetized with an intramuscular injection of a mixture of ketamine/acepromazaine (180 mg/2 mg), intubated and placed on a Siemens 900c ventilator (Siemens Medical Systems, Danvers Mass.). A catheter was placed in the marginal ear vein for infusion of intravenous fluids to maintain volume status. This catheter also was used to administer three doses of 50 mL barbituric acid solution (125 mM, pH=7.4, 20 mM phosphate buffer). Anesthesia was maintained with 2% isoflurane until sacrifice with 6 meq of KCl IV.
The rabbit was analyzed using a 4 Tesla magnet at the settings described in Example 1. The images were obtained after irradiation at the ppm offset characteristic of barbituric acid (5.25). […] The bladder and surrounding muscles are visible. This control image is collected to correct for the broad background of saturation transfer from macromolecules (i.e. proteins, lipids) located underneath the water signal. Guivel-Scharen et al., J. Magn. Reson., 133:36-45 (1998), herein incorporated by reference. […] This will irradiate the barbituric acid signal.
Following sacrifice of the rabbit, urine was collected and evaluated on the 7T system at 37° C. as described in Example 1. […] FIGS. 12-14 also confirm the identity of the metabolite imaged during the in vivo analysis.

[5] = cited from earlier work; remark: listed apart in the source
[6] = imidazole derivatives, ring protons (—NH), concentration not given, 37° C., 20 mM phosphate buffer
[7] = 62.5 mM, 37° C., 20 mM phosphate buffer, 10.88 × 10^−7T, at given ppm and pH
[8] = 62.5 mM, 37° C., 20 mM phosphate buffer, exchange site
[9] = sugars 250 mM, —OH protons, single pH 7.0, 37° C., 20 mM phosphate buffer
[10] = sugars 250 mM, —OH protons, single pH 7.0, 37° C., 20 mM phosphate buffer, saturation power 10.88 × 10^−7T
[11] = 125 mM, guanidinium protons, single pH 7.0, 37° C., 20 mM phosphate buffer, 10.88 × 10^−7T
[12] = 125 mM, 37° C., 20 mM phosphate buffer, 10.88 × 10^−7T, at given ppm and pH
[13] = 125 mM, 37° C., 20 mM phosphate buffer, exchange site
[14] = 35 mM, —NH2, 37° C., 20 mM phosphate buffer, 10.88 × 10^−7T, at listed pH
[15] = 125 mM, 3-NH, 37° C., 2 mM phosphate buffer, 10.88 × 10^−7T, at listed pH

## O=C1NCCN1 [2-Imidazolidone]
[1]; [6]
  Mo − Ms (%): 30.4% and 29.8%
  Ms/Mo: 0.68
  ppm (relative to the resonant frequency of water): 1.167 ppm

## O=C1CC(=O)NC(=S)N1 [2-Thio-Barbituric Acid]
[1]; [7]
  Mo − Ms (%): 35.3%
  Ms/Mo: 0.65
[1]; [8]
  ppm (relative to the resonant frequency of water): 6.333 ppm
[1]
  chemical shift of proton chemical exchange site (ΔωcA): 6.33 ppm

## O=C1CCNC(=O)N1 [5,6 Dihydrouracil]
[1]; [7]
  Mo − Ms (%): 22.2%
  Ms/Mo: 0.78 and 0.77
[1]; [8]
  ppm (relative to the resonant frequency of water): 5.000 ppm and 2.667 ppm
[1]; running text, listed as 5,6-dihydro-uracil
  chemical shift of proton chemical exchange site (ΔωcA): 5.00 ppm and 2.67 ppm
[1]; running text, listed as 5,6-dihydrouracil
  chemical shift of proton chemical exchange site (ΔωcA): 5.0 ppm and 2.67 ppm
[2]
  pKa of the 5.00 ppm site: ~9.5

## N[C@@H](Cc1c[nH]c2ccc(O)cc12)C(=O)O [5-Hydroxy-Tryptophan]
[1]; [7]
  Ms/Mo: 0.57 and 0.79
[1]; [8]
  ppm (relative to the resonant frequency of water): 2.833 ppm and 5.333 ppm
[1]
  chemical shift of proton chemical exchange site (ΔωcA): 5.33 ppm and 2.83 ppm
[1]; listed as 5-HT
  chemical shift of proton chemical exchange site (ΔωcA): 5.33 ppm

## O=C(O)C1CCN1 (stereo not shown) [Azetidine-2-Carboxylic Acid]
[1]; [7]
  Mo − Ms (%): 25.5%
  Ms/Mo: 0.74
[1]; [8]
  ppm (relative to the resonant frequency of water): 3.50 ppm

## CCC1(CC)C(=O)NC(=O)NC1=O [Barbital (5,5-Diethyl-Barbituric Acid), 5,5-Diethyl-Barbituric Acid]
[1]; [7]
  Mo − Ms (%): 14.2%
  Ms/Mo: 0.82
[1]; [8]
  ppm (relative to the resonant frequency of water): 5.000 ppm
[3]
  pKa: 7

## O=C1CC(=O)NC(=O)N1 [Barbituric Acid]
[4]; 4T, about 20° C., irradiated at ±850 Hz, barbituric acid 62.5 mM pH 7.4, 7.0, 6.5, NH4Cl 500 mM pH 5.0
  enhancement in difference image of phantoms: enhanced
[1]; [7]
  Mo − Ms (%): 32.5%
  Ms/Mo: 0.68
[1]; [8]
  ppm (relative to the resonant frequency of water): 5.000 ppm
[1]
  chemical shift of proton chemical exchange site (ΔωcA): 5.00 ppm
[3]
  pKa: 12
Rabbit bladder; intravenous, 125 mM solution
  physiological response to the injection: physiologically unaltered (i.e. no change in blood pressure)
Rabbit bladder; intravenous, 50 mL doses of 125 mM solution, pH 7.4
  time to reach the kidneys: ≤ 20 min
Rabbit bladder; irradiation ±900 Hz (5.25 ppm/4T)
  location of signal remaining in the in vivo difference image: is in the bladder, not in the muscle or other tissues
[5]
  Oral dosage toxicity, LD50: > 5000 mg/kg

## O=C(CO)[C@@H](O)[C@H](O)[C@H](O)CO [Fructose]
[1]; [9]
  ppm (relative to the resonant frequency of water): 1.333 ppm
[1]; [10]
  Mo − Ms (%): 9.3%
  Ms/Mo: 0.88

## O=C[C@H](O)[C@@H](O)[C@@H](O)[C@H](O)CO [Galactose]
[1]; [9]
  ppm (relative to the resonant frequency of water): 1.167 ppm
[1]; [10]
  Mo − Ms (%): 10.3%
  Ms/Mo: 0.85

## N=C(N)N [Guanidine HCl]
[1]; 125 mM, guanidinium protons, single pH 7.0, 37° C., 20 mM phosphate buffer
  ppm (relative to the resonant frequency of water): 2.000 ppm
[1]; [11]
  Mo − Ms (%): 60.0%
  Ms/Mo: 0.38

## O=C1CNC(=O)N1 [Hydantoin]
[1]; [7]
  Mo − Ms (%): 18.7% and 21.3%
  Ms/Mo: 0.81 and 0.78

## C[C@H](N)C(=O)O [L-Alanine]
[1]; [12]
  Mo − Ms (%): 67.4%
  Ms/Mo: 0.36
[1]; [13]
  ppm (relative to the resonant frequency of water): 3.000 ppm

## NC(=O)CC[C@H](N)C(=O)O [L-Glutamine]
[1]; [12]
  Mo − Ms (%): 27.6%
  Ms/Mo: 0.70
[1]; [13]
  ppm (relative to the resonant frequency of water): 2.000 ppm

## NCCCC[C@H](N)C(=O)O [L-Lysine]
[1]; [12]
  Mo − Ms (%): 66.2%
  Ms/Mo: 0.34
[1]; [13]
  ppm (relative to the resonant frequency of water): 3.000 ppm

## N[C@@H](Cc1c[nH]c2ccccc12)C(=O)O [L-Tryptophan]
[1]; 35 mM, —NH2, 37° C., 20 mM phosphate buffer
  ppm (relative to the resonant frequency of water): 2.000 ppm
[1]; [14]
  Mo − Ms (%): 12.2%
  Ms/Mo: 0.89

## OC[C@@H](O)[C@@H](O)[C@H](O)[C@H](O)CO [Mannitol]
[1]; [9]
  ppm (relative to the resonant frequency of water): 1.000 ppm
[1]; [10]
  Mo − Ms (%): 9.0%
  Ms/Mo: 0.89

## Cl.N [NH4Cl, reference compound]
[4]
  enhancement in difference image of phantoms: neither the surrounding water nor the NH4Cl control were significantly affected

## O=C1NC(=O)C(=O)N1 [Parabanic Acid]
[1]; [7]
  Mo − Ms (%): 20.5% and 25.4% and 22.5%
  Ms/Mo: 0.79 and 0.74 and 0.77

## O=C(O)C1CCCCN1 (stereo not shown) [Pipecolinic Acid]
[1]; [7]
  Mo − Ms (%): 19.3%
  Ms/Mo: 0.81
[1]; [8]
  ppm (relative to the resonant frequency of water): 3.33 ppm

## OC[C@@H](O)[C@@H](O)[C@H](O)[C@@H](O)CO [Sorbitol]
[1]; [9]
  ppm (relative to the resonant frequency of water): 1.000 ppm
[1]; [10]
  Mo − Ms (%): 7.3%
  Ms/Mo: 0.88

## OC[C@H]1O[C@@](CO)(O[C@H]2O[C@H](CO)[C@@H](O)[C@H](O)[C@H]2O)[C@@H](O)[C@@H]1O [Sucrose]
[1]; [9]
  ppm (relative to the resonant frequency of water): 1.333 ppm
[1]; [10]
  Mo − Ms (%): 10.2%
  Ms/Mo: 0.86

## Cc1cn([C@H]2C[C@H](O)[C@@H](CO)O2)c(=O)[nH]c1=O [Thymidine]
[1]; 125 mM, 3-NH, 37° C., 2 mM phosphate buffer
  ppm (relative to the resonant frequency of water): 6.333 ppm
[1]; [15]
  Mo − Ms (%): 34.8%
  Ms/Mo: 0.65

## O=c1ccn([C@@H]2O[C@H](CO)[C@@H](O)[C@H]2O)c(=O)[nH]1 [Uridine]
[1]; [15]
  Ms/Mo: 0.65
